In US6632799B2, “Injectable ready-to-use solutions containing an antitumor anthracycline glycoside” (Pharmacia & Upjohn Company, priority 1985, dated 2003):
Counter-ions that a name gives are not always drawn.

Tests used:
[1] = Shelf-life (t 90%) forecast of doxorubicin.HCl 2 mg/ml 0.9% sodium chloride solution adjusted to pH 3.0; type: physicochemical; settings: for Kobs × 10^3: observed
Procedure: The Arrhenius equation for the degradation process was calculated from the Kobs obtained from the different temperatures taken in account for the testing (table 13).

[2] = Shelf-life (t 90%) forecast of doxorubicin.HCl 2 mg/ml solution in 5% dextrose adjusted to pH 3.0; type: physicochemical; settings: for Kobs × 10^3: observed
Procedure: Applying the equation, the rate constants for the pseudo-first order reactions at 4° C., 8° C., and 15° C. and 27° C. were calculated, together with the expected t90% at these temperatures.

[3] = 0.9% NaCl pH 3.0, 27° C., Arrhenius
[4] = 0.9% sodium chloride pH 3.0, 35° C., 0 days
[5] = 0.9% sodium chloride pH 3.0, 35° C., 8 days
[6] = 0.9% sodium chloride pH 3.0, 35° C., 14 days
[7] = 0.9% sodium chloride pH 3.0, 35° C., 21 days
[8] = 0.9% sodium chloride pH 3.0, 35° C., 28 days
[9] = 0.9% sodium chloride pH 3.0, 45° C., 0 days
[10] = 0.9% sodium chloride pH 3.0, 45° C., 4 days
[11] = 0.9% sodium chloride pH 3.0, 45° C., 8 days
[12] = 0.9% sodium chloride pH 3.0, 45° C., 21 days
[13] = 0.9% sodium chloride pH 3.0, 55° C., 0 days
[14] = 0.9% sodium chloride pH 3.0, 55° C., 11 days
[15] = 0.9% sodium chloride pH 3.0, 60° C., 0 days
[16] = 0.9% sodium chloride pH 3.0, 60° C., 1 day
[17] = 0.9% sodium chloride pH 3.0, 60° C., 3 days
[18] = 5% dextrose pH 3.0, 35° C., 4 days
[19] = 5% dextrose pH 3.0, 35° C., 8 days
[20] = 5% dextrose pH 3.0, 35° C., 14 days
[21] = 5% dextrose pH 3.0, 35° C., 17 days
[22] = 5% dextrose pH 3.0, 35° C., 21 days
[23] = 5% dextrose pH 3.0, 45° C., 4 days
[24] = 5% dextrose pH 3.0, 45° C., 8 days
[25] = 5% dextrose pH 3.0, 45° C., 14 days
[26] = 5% dextrose pH 3.0, 45° C., 21 days
[27] = 5% dextrose pH 3.0, 55° C., 17 days
[28] = 5% dextrose pH 3.0, 55° C., 21 days
[29] = 5% dextrose pH 3.0, 60° C., 2 days
[30] = 5% dextrose pH 3.0, 60° C., 4 days
[31] = 5% dextrose pH 3.0, 60° C., 6 days
[32] = 5% dextrose pH 3.0, 60° C., 8 days

K × 10^3 calculated ([1]; 0.9% NaCl pH 3.0, 4° C., Arrhenius): 0.017 1/days
K × 10^3 calculated ([1]; 0.9% NaCl pH 3.0, 8° C., Arrhenius): 0.037 1/days
K × 10^3 calculated ([1]; 0.9% NaCl pH 3.0, 15° C., Arrhenius): 0.137 1/days
K × 10^3 calculated [1, 3]: 1.112 1/days
t90% [1, 3]: 94 days
Kobs × 10^3 ([1]; 0.9% NaCl pH 3.0, 35° C.): 3.89 1/days
Kobs × 10^3 ([1]; 0.9% NaCl pH 3.0, 45° C.): 21.61 1/days
Kobs × 10^3 ([1]; 0.9% NaCl pH 3.0, 55° C.): 75.90 1/days
Kobs × 10^3 ([1]; 0.9% NaCl pH 3.0, 60° C.): 164.90 1/days
Doxorubicin.HCl assay [1, 4]: 2.061 mg/mL
pH [1, 4]: 3.05
Doxorubicin.HCl assay [1, 5]: 2.045 mg/mL
pH [1, 5]: 2.98
Doxorubicin.HCl assay [1, 6]: 1.946 mg/mL
pH [1, 6]: 2.92
Doxorubicin.HCl assay [1, 7]: 1.932 mg/mL
pH [1, 7]: 2.92
Doxorubicin.HCl assay [1, 8]: 1.852 mg/mL
pH [1, 8]: 2.98
Doxorubicin.HCl assay [1, 9]: 2.061 mg/mL
pH [1, 9]: 3.05
Doxorubicin.HCl assay [1, 10]: 1.996 mg/mL
pH [1, 10]: 2.98
Doxorubicin.HCl assay [1, 11]: 1.724 mg/mL
pH [1, 11]: 2.97
pH ([1]; 0.9% sodium chloride pH 3.0, 45° C., 14 days): 2.98
Doxorubicin.HCl assay [1, 12]: 1.344 mg/mL
pH [1, 12]: 2.93
Doxorubicin.HCl assay [1, 13]: 2.061 mg/mL
pH [1, 13]: 3.05
pH ([1]; 0.9% sodium chloride pH 3.0, 55° C., 4 days): 2.90
pH ([1]; 0.9% sodium chloride pH 3.0, 55° C., 8 days): 2.97
Doxorubicin.HCl assay [1, 14]: 0.900 mg/mL
pH [1, 14]: 2.95
Doxorubicin.HCl assay [1, 15]: 2.061 mg/mL
pH [1, 15]: 3.05
Doxorubicin.HCl assay [1, 16]: 1.742 mg/mL
pH [1, 16]: 2.97
pH ([1]; 0.9% sodium chloride pH 3.0, 60° C., 2 days): 2.96
Doxorubicin.HCl assay [1, 17]: 1.290 mg/mL
pH [1, 17]: 2.98
pH ([1]; 0.9% sodium chloride pH 3.0, 60° C., 4 days): 2.96
t90% ([2]; 5% dextrose pH 3.0, 27° C., Arrhenius): 82 days
Doxorubicin.HCl assay ([2]; 5% dextrose pH 3.0, 35° C., 0 days): 2.114 mg/mL
Doxorubicin.HCl assay [2, 18]: 2.044 mg/mL
pH [2, 18]: 2.98
Doxorubicin.HCl assay [2, 19]: 2.034 mg/mL
pH [2, 19]: 2.94
Doxorubicin.HCl assay [2, 20]: 2.015 mg/mL
pH [2, 20]: 2.95
Doxorubicin.HCl assay [2, 21]: 1.934 mg/mL
pH [2, 21]: 2.90
Doxorubicin.HCl assay [2, 22]: 1.859 mg/mL
pH [2, 22]: 2.94
Kobs × 10^3 ([2]; 5% dextrose pH 3.0, 35° C.): 4.190 1/days
Doxorubicin.HCl assay ([2]; 5% dextrose pH 3.0, 45° C., 0 days): 2.114 mg/mL
Doxorubicin.HCl assay [2, 23]: 1.940 mg/mL
pH [2, 23]: 2.97
Doxorubicin.HCl assay [2, 24]: 1.870 mg/mL
pH [2, 24]: 2.98
Doxorubicin.HCl assay [2, 25]: 1.684 mg/mL
pH [2, 25]: 2.95
pH ([2]; 5% dextrose pH 3.0, 45° C., 17 days): 2.96
Doxorubicin.HCl assay [2, 26]: 1.410 mg/mL
pH [2, 26]: 2.96
Kobs × 10^3 ([2]; 5% dextrose pH 3.0, 45° C.): 14.55 1/days
Doxorubicin.HCl assay ([2]; 5% dextrose pH 3.0, 55° C., 0 days): 2.114 mg/mL
pH ([2]; 5% dextrose pH 3.0, 55° C., 4 days): 2.95
pH ([2]; 5% dextrose pH 3.0, 55° C., 8 days): 2.92
pH ([2]; 5% dextrose pH 3.0, 55° C., 14 days): 2.99
Doxorubicin.HCl assay [2, 27]: 0.957 mg/mL
pH [2, 27]: 2.91
Doxorubicin.HCl assay [2, 28]: 0.796 mg/mL
pH [2, 28]: 2.95
Kobs × 10^3 ([2]; 5% dextrose pH 3.0, 55° C.): 58.11 1/days
Doxorubicin.HCl assay ([2]; 5% dextrose pH 3.0, 60° C., 0 days): 2.114 mg/mL
Doxorubicin.HCl assay [2, 29]: 1.752 mg/mL
pH [2, 29]: 2.96
Doxorubicin.HCl assay [2, 30]: 1.393 mg/mL
pH [2, 30]: 2.98
Doxorubicin.HCl assay [2, 31]: 1.176 mg/mL
pH [2, 31]: 2.96
Doxorubicin.HCl assay [2, 32]: 0.925 mg/mL
pH [2, 32]: 2.97
Kobs × 10^3 ([2]; 5% dextrose pH 3.0, 60° C.): 102.6 1/days
Structure (SMILES): COc1cccc2c1C(=O)c1c(O)c3c(c(O)c1C2=O)C[C@@](O)(C(=O)CO)C[C@@H]3O[C@H]1C[C@H](N)[C@H](O)[C@H](C)O1 [Doxorubicin.HCl, doxorubicin hydrochloride]
commercially meaningful shelf-life (t90% forecasts) ([1]; 2 mg/ml pH 3.0 in 0.9% sodium chloride): only if the product is stored in a refrigerator
commercially meaningful shelf-life (t90% forecasts) ([2]; 2 mg/ml pH 3.0 5% dextrose solution): only if the product is stored in a refrigerator
